In paper PMC8318587, “Structure-guided microbial targeting of antistaphylococcal prodrugs” (eLife, 2021) one finds kcat/kuncat, Km and Vmax data, which are given here for 24 compounds.

In one assay the target is T1, SaGloB (Staphylococcus aureus, UniProt P0DY75).
T1 sequence (P0DY75 1-207): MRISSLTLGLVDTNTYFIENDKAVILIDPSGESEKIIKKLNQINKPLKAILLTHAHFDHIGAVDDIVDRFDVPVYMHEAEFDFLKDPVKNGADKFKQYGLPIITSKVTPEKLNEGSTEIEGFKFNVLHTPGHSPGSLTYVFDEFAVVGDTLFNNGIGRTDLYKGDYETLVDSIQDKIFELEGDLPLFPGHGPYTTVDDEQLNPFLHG
Put plainly: Esterase substrate specificity, fluorogenic SAR library kinetics. Type of assay: biochemical. To be noted: SaGloB; for kcat/kuncat: normalised to uncatalysed hydrolysis rate; for Km: fluorogenic ester substrate. The method, then: (§1) Kinetic measurements were performed according to [White et al., 2018] with minor variation. Lyophilized human and mouse sera were resuspended according to manufacturer instructions in highly pure, filtered water at protein concentrations of 85 mg/mL and 70 mg/mL, respectively. One milliliter of resuspended serum was added to a 24 mL mastermix for a final concentration of 31.25 mM Tris pH 7.5, 312.5 mM NaCl, 1.25 mM MgCl2, 12.5% glycerol, and 3.4 mg/mL or 2.8 mg/mL protein for human and mouse serum, respectively. For purified proteins, 5 mL of a 75 µg/mL stock was added to yield a 20 mL mastermix containing 31.25 mM Tris pH 7.5, 312.5 mM NaCl, 1.25 mM MgCl2, 12.5% glycerol, and 18.75 µg/mL protein. Mastermix was stored on ice when not in use. Twenty microliters of mastermix was transferred to a black, 96-well half area microplate (Corning, CLS3993) and prewarmed at 37°C. Fluorogenic substrates were prepared as 10 mM stock solutions in 100% DMSO and were diluted in water to a starting concentration of 500 µM. Enzyme catalyzed substrate hydrolysis was initiated by addition of 5 µL substrate dilution in technical duplicate to the prewarmed serum or protein solution. Final assay concentrations were as follows: 25 mM Tris pH 7.5, 250 mM NaCl, 1 mM MgCl2, 10% glycerol, and protein at a concentration of 2.72 mg/mL (human serum), 2.24 mg/mL (mouse serum), or 15 µg/mL (FrmB, GloB). The resulting change in fluorescence (λex = 485 nm, λem = 520 nm) was followed for 15 min at 37°C, collecting data every 30 s on a FLUOstar Omega microplate reader (BMG Labtech). Fluorescence measurements were converted to molar concentrations using a fluorescein standard curve (2.5 nmol–0.6 pmol). The initial rates of reaction were measured three independent times with two technical replicates per measurement and fit to a line using GraphPad Prism (GraphPad Software, La Jolla, CA). Initial rates of reaction were plotted versus the concentration of substrate and fit to a standard Michaelis–Menten equation (v = Vmax[S]/(Km + [S])), yielding estimates of Vmax and Km. Values for kcat and kcat/Km were calculated based on amount of enzyme added when purified enzymes were used.

A further assay deals with T2, SaFrmB (Staphylococcus aureus, UniProt A0A0H3KFB7).
T2 construct: made in house; host or cells: E. coli BL21 (DE3)
T2 sequence (A0A0H3KFB7 1-253): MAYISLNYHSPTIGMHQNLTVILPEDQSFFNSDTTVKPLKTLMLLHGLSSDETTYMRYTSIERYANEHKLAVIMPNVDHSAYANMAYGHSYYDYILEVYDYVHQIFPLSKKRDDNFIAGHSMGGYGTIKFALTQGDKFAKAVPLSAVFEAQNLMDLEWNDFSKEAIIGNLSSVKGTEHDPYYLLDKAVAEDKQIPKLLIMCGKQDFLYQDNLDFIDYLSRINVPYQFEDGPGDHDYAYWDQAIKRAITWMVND
The description is as above. Type of assay: biochemical. Particulars: for kcat/kuncat: SaFrmB; for Km: SaFrmB 15 µg/mL, pH 7.5, 37°C. The method, then: as §1

For another assay, the system named is human sera. Put plainly: Esterase substrate specificity, fluorogenic SAR library kinetics in serum. Type of assay: in vitro ADME. The method, then: as §1
In the next assay the test system is mouse sera. Described as above. Type of assay: in vitro ADME. How it is done: as §1

What is called Km is the substrate concentration at which the rate is half of its maximum. Turning to `CCCC(=O)OCOc1ccc2c(c1)Oc1cc(OCOC(=O)CCC)ccc1C21OC(=O)c2ccccc21` [1C], the kcat/kuncat at SaGloB was 21.2 103; on SaFrmB, 7.99 103. In addition, the Km in the assay on human sera is 36.2 µM; in the assay with mouse sera, over 50 µM. For the same compound, the Vmax in the assay with human sera came out at 1.06 pmol*min-1*mg sera-1.

In the case of `CSCC(=O)OCOc1ccc2c(c1)Oc1cc(OCOC(=O)CSC)ccc1C21OC(=O)c2ccccc21` [1S], the kcat/kuncat at SaGloB was 11.4 103. The figures for the Km at SaFrmB, in the assay with human sera and in the assay on mouse sera were over 50 µM, 71.8 µM and over 50 µM, respectively. Moreover, the Vmax in the assay with human sera was found to be 30.5 pmol*min-1*mg sera-1.

Turning to `CCCCC(=O)OCOc1ccc2c(c1)Oc1cc(OCOC(=O)CCCC)ccc1C21OC(=O)c2ccccc21` [2C], the figures for the kcat/kuncat at SaGloB and at SaFrmB were 17.2 103 and 4.74 103, respectively. Also, the results for the Km in the assay with human sera and in the assay on mouse sera were 71.5 µM and over 50 µM, respectively. The Vmax in the assay on human sera is reported as 0.356 pmol*min-1*mg sera-1.

`CCOCC(=O)OCOc1ccc2c(c1)Oc1cc(OCOC(=O)COCC)ccc1C21OC(=O)c2ccccc21` [2O]: the kcat/kuncat is 19.4 103 on SaGloB and 1.08 103 at SaFrmB. The Km in the assay on human sera is 40.4 µM; with mouse sera it was over 50 µM. For the same compound, the Vmax in the assay on human sera was found to be 43.8 pmol*min-1*mg sera-1.

On to `CCSCC(=O)OCOc1ccc2c(c1)Oc1cc(OCOC(=O)CSCC)ccc1C21OC(=O)c2ccccc21` [2S], for which the Km at SaGloB, at SaFrmB, in the assay on human sera and in the assay on mouse sera was over 50 µM each time.

Take `CCCOCC(=O)OCOc1ccc2c(c1)Oc1cc(OCOC(=O)COCCC)ccc1C21OC(=O)c2ccccc21` [3O]: the kcat/kuncat is 4.91 103 on SaGloB and 0.911 103 on SaFrmB. In addition, the Km with human sera was 22.2 µM; in the assay with mouse sera, over 50 µM. In addition, in the assay with human sera, the Vmax was 11.7 pmol*min-1*mg sera-1.

Take `CCCSCC(=O)OCOc1ccc2c(c1)Oc1cc(OCOC(=O)CSCCC)ccc1C21OC(=O)c2ccccc21` [3S]: the Km at SaGloB is over 50 µM; on SaFrmB it was over 50 µM; with human sera it was 74.3 µM; in the assay on mouse sera, over 50 µM. Moreover, the Vmax in the assay with human sera was 8.80 pmol*min-1*mg sera-1.

For the compound `COCCC(=O)OCOc1ccc2c(c1)Oc1cc(OCOC(=O)CCOC)ccc1C21OC(=O)c2ccccc21` [4O], the kcat/kuncat on SaGloB is given as 8.42 103; at SaFrmB it was 1.40 103. For the same compound, the Km in the assay on human sera is 44.5 µM; in the assay with mouse sera, over 50 µM. For the same compound, the Vmax with human sera is recorded as 5.88 pmol*min-1*mg sera-1.

Consider `CSCCC(=O)OCOc1ccc2c(c1)Oc1cc(OCOC(=O)CCSC)ccc1C21OC(=O)c2ccccc21` [4S], for which the Km on SaGloB is over 50 µM; with human sera, 27.9 µM; with mouse sera, over 50 µM. Also, on SaFrmB, the kcat/kuncat is 1.40 103. Also, in the assay with human sera, the Vmax worked out at 3.81 pmol*min-1*mg sera-1.

For the compound `CCSCCC(=O)OCOc1ccc2c(c1)Oc1cc(OCOC(=O)CCSCC)ccc1C21OC(=O)c2ccccc21` [5S], the kcat/kuncat is on record as 4.35 103 at SaGloB and 0.910 103 at SaFrmB. Besides, the values for the Km in the assay with human sera and with mouse sera were 31 µM and over 50 µM, respectively. Moreover, the Vmax in the assay on human sera turned out to be 0.690 pmol*min-1*mg sera-1.

For the compound `CC(C)CCC(=O)OCOc1ccc2c(c1)Oc1cc(OCOC(=O)CCC(C)C)ccc1C21OC(=O)c2ccccc21` [6C], the kcat/kuncat on SaGloB is given as 12.7 103. The Km at SaFrmB was over 50 µM; with human sera it was over 50 µM; with mouse sera it was 53.5 µM. The Vmax in the assay on mouse sera was determined as 17.6 pmol*min-1*mg sera-1.

For the compound `CC(C)OCC(=O)OCOc1ccc2c(c1)Oc1cc(OCOC(=O)COC(C)C)ccc1C21OC(=O)c2ccccc21` [6O], the kcat/kuncat at SaGloB is recorded as 5.76 103; on SaFrmB, 1.49 103. The Km was found to be 54.6 µM in the assay with human sera and 11.5 µM in the assay on mouse sera. The Vmax came to 11.7 pmol*min-1*mg sera-1 in the assay with human sera and 437 pmol*min-1*mg sera-1 with mouse sera.

`CC(C)SCC(=O)OCOc1ccc2c(c1)Oc1cc(OCOC(=O)CSC(C)C)ccc1C21OC(=O)c2ccccc21` [6S]: the kcat/kuncat at SaGloB is given as 12.9 103; at SaFrmB, 2.44 103. Besides, the Km with human sera and in the assay with mouse sera was over 50 µM throughout.

As to `CCC(C)C(=O)OCOc1ccc2c(c1)Oc1cc(OCOC(=O)C(C)CC)ccc1C21OC(=O)c2ccccc21` (stereo not shown) [7C], the Km at SaGloB was over 50 µM; at SaFrmB, over 50 µM; in the assay on human sera, 64.2 µM; with mouse sera it was over 50 µM. The Vmax with human sera is 0.441 pmol*min-1*mg sera-1.

Take `COC(C)C(=O)OCOc1ccc2c(c1)Oc1cc(OCOC(=O)C(C)OC)ccc1C21OC(=O)c2ccccc21` (stereo not shown) [7O]: the kcat/kuncat is 23.6 103 at SaGloB and 3.31 103 on SaFrmB. For the same compound, the Km came to 30.3 µM in the assay with human sera and 25.9 µM in the assay on mouse sera. In addition, the Vmax with human sera worked out at 5.73 pmol*min-1*mg sera-1; in the assay with mouse sera it was 929 pmol*min-1*mg sera-1.

On to `CSC(C)C(=O)OCOc1ccc2c(c1)Oc1cc(OCOC(=O)C(C)SC)ccc1C21OC(=O)c2ccccc21` (stereo not shown) [7S], for which the kcat/kuncat on SaGloB was 7.86 103. In addition, the figures for the Michaelis-Menten constant (Km) on SaFrmB, with human sera and with mouse sera were over 50 µM, 30.2 µM and over 50 µM, respectively. In the assay with human sera, the Vmax was found to be 1.60 pmol*min-1*mg sera-1.

As for `CCCC(C)C(=O)OCOc1ccc2c(c1)Oc1cc(OCOC(=O)C(C)CCC)ccc1C21OC(=O)c2ccccc21` (stereo not shown) [8C], on SaGloB, the kcat/kuncat was 79.1 103. In addition, the Km on SaFrmB, with human sera and in the assay with mouse sera was over 50 µM each time.

`CCOC(C)C(=O)OCOc1ccc2c(c1)Oc1cc(OCOC(=O)C(C)OCC)ccc1C21OC(=O)c2ccccc21` (stereo not shown) [8O]: the kcat/kuncat on SaGloB was 6.80 103; on SaFrmB, 1.38 103. Also, the Km was 27.7 µM in the assay with human sera and over 50 µM in the assay on mouse sera. Also, the Vmax in the assay on human sera was 3.93 pmol*min-1*mg sera-1.

On to `CCSC(C)C(=O)OCOc1ccc2c(c1)Oc1cc(OCOC(=O)C(C)SCC)ccc1C21OC(=O)c2ccccc21` (stereo not shown) [8S], for which, at SaGloB, the kcat/kuncat was 9.01 103. Also, the Km on SaFrmB, with human sera and in the assay with mouse sera was over 50 µM throughout.

As to `CCC(OC)C(=O)OCOc1ccc2c(c1)Oc1cc(OCOC(=O)C(CC)OC)ccc1C21OC(=O)c2ccccc21` (stereo not shown) [9O], on SaGloB, the kcat/kuncat is given as 14.6 103. Further, the Km at SaFrmB was over 50 µM; in the assay on human sera, 112 µM; in the assay with mouse sera, over 50 µM. For the same compound, the Vmax in the assay on human sera is 4.35 pmol*min-1*mg sera-1.

Take `CCC(SC)C(=O)OCOc1ccc2c(c1)Oc1cc(OCOC(=O)C(CC)SC)ccc1C21OC(=O)c2ccccc21` (stereo not shown) [9S]: the Km at SaGloB, at SaFrmB, in the assay with human sera and in the assay with mouse sera was over 50 µM each time.

As for `CCC(C)(C)C(=O)OCOc1ccc2c(c1)Oc1cc(OCOC(=O)C(C)(C)CC)ccc1C21OC(=O)c2ccccc21` [10C], the Km at SaGloB, at SaFrmB, in the assay with human sera and in the assay with mouse sera was over 50 µM in each case.

Regarding `COC(C)(C)C(=O)OCOc1ccc2c(c1)Oc1cc(OCOC(=O)C(C)(C)OC)ccc1C21OC(=O)c2ccccc21` [10O], the Km on SaGloB is over 50 µM; with human sera, 63.3 µM; in the assay with mouse sera, over 50 µM. Also, the kcat/kuncat on SaFrmB is 4.97 103. In the assay on human sera, the Vmax is reported as 1.46 pmol*min-1*mg sera-1.

On to `O=C(CCc1ccccc1)OCOc1ccc2c(c1)Oc1cc(OCOC(=O)CCc3ccccc3)ccc1C21OC(=O)c2ccccc21` [11C], for which the Michaelis-Menten constant (Km) on SaGloB, on SaFrmB, in the assay with human sera and in the assay with mouse sera was over 50 µM in each case.
